The record followed here is publication PMC9780888, “4-Isobutylmethcathinone—A Novel Synthetic Cathinone with High In Vitro Cytotoxicity and Strong Receptor Binding Preference of Enantiomers” (Pharmaceuticals, 2022).

Counter-ions that a name gives are not always drawn.

One test addresses T1, dopamine receptor DAR2 (Homo sapiens, UniProt P14416).
T1 construct: host or cells: HTLA (HEK 293-derived)
Briefly: PRESTO-Tango β-arrestin 2 recruitment assay, DAR2. To be noted: for RLU value relative to control (transfected but untreated HTLA cells): DAR2, 500 nM. Format: cell-based. The source says: (§1) However, binding to a specific receptor/transporter and, thus, the mechanism of action of a given cathinone always depends on the specific structure of the evaluated compound [37]. In this study, the binding activity of IBMcat and its enantiomers was verified by PRESTO-Tango (parallel receptor expression and screening via transcriptional output, with transcriptional activation following arrestin-2 translocation) assay using the HTLA cell line stably producing β-arrestin-2 in a fusion with TEV and luciferase production driven by tTA. For this purpose, the HTLA cells were transiently transfected with plasmid DNA encoding the dopamine receptors type 1-4 (DAR1-4), which also contain the TEV protease cleavage site followed by tTA at the 3’-end (DAR1-Tango, DAR2-Tango, DAR3-Tango, DAR4-Tango). In the case of the receptor activation by a ligand, in transfected cells, the receptor is desensitized by β-arrestin fused to TEV protease. This brings the TEV protease close to the site that specifically cleaves and, thus, the transcription factor can be cleaved. The transcription factor then translocates to the cell nucleus, in which it triggers the transcription of the target gene for luciferase production which can be determined by the light emitted from luciferin conversion to oxyluciferin. Here, the pronounced luminescence was recorded for all DAR1-4 types in HTLA cells treated with IBMCat and its enantiomers (Figure 8).
(§2) The HTLA cell line was used for the PRESTO-Tango β-arrestin recruitment assay. […]
(§3) The transfected HTLA cells were incubated for 24 h, and then 1 × 10^4 cells were seeded per well of a white 96-well clear bottom plate (Brand, Germany) in 40 μL of DMEM with 1% charcoal-stripped FBS (Thermo Fisher Scientific, USA). […] After 5 min., the luminescence was measured using a multi-mode microplate reader SpectraMax iD5 (Molecular Devices, San Jose, CA, USA) measuring the entire wavelength spectrum. All samples were measured in quadruplicates. The data were evaluated by Prism 7 software (GraphPad, San Jose, CA, USA).

The target of another test is T2, dopamine receptor DAR3 (Homo sapiens, UniProt P35462).
T2 construct: host or cells: HTLA (HEK 293-derived)
The test is described as follows: PRESTO-Tango β-arrestin 2 recruitment assay, DAR3. The following applies: for increase in RLU compared to the control: DAR3, 500 nM. The class given is cell-based.
Excerpt: as §1, §2, §3
Background: Recruitment of arrestin is a read-out of receptor activation apart from second messengers.

T1 sequence (P14416 whole entry): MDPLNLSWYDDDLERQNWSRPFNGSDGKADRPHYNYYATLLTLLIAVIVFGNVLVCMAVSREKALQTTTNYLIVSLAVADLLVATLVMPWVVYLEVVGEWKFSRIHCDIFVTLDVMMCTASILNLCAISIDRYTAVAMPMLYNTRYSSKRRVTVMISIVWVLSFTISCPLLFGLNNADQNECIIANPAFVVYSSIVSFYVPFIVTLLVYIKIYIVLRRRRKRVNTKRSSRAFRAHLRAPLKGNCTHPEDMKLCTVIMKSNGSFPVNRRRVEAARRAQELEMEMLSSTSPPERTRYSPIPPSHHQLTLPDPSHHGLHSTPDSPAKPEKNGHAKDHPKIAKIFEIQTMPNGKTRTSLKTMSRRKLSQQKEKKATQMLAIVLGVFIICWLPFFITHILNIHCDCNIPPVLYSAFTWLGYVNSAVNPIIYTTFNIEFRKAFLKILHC
T2 sequence (P35462 whole entry): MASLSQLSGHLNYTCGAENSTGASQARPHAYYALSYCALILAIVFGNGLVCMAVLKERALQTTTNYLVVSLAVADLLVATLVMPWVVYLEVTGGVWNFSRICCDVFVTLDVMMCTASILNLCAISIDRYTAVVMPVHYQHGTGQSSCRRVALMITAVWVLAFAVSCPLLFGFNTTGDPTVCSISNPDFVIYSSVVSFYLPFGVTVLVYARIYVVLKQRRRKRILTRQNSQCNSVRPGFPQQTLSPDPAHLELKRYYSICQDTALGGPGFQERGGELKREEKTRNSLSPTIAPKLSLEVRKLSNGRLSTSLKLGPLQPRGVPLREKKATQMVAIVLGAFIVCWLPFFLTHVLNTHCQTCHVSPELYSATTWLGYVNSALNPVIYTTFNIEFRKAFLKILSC

As to `CNC(C)C(=O)c1ccc(CC(C)C)cc1.Cl` (stereo not drawn) [IBMcat, 4-isobutylmethcathinone hydrochloride], the “RLU value relative to control (transfected but untreated HTLA cells)” value at dopamine receptor DAR2 is listed as “approximately 5 fold”. Moreover, the “increase in RLU compared to the control” value on dopamine receptor DAR3 amounted to 5 fold.
For the compound `CN[C@H](C)C(=O)c1ccc(CC(C)C)cc1` [R-IBMCat], on dopamine receptor DAR2 (0-500 nM), the “effect on DAR2-expressing cells” value is given as “no effect”. Also, the “effect on DAR3-expressing cells” value on dopamine receptor DAR3 (0-500 nM) is reported as “no effect”.
For the compound `CN[C@@H](C)C(=O)c1ccc(CC(C)C)cc1` [S-IBMCat, (S)-4-isobutylmethcathinone hydrochloride], on dopamine receptor DAR2, the “RLU value relative to control (transfected but untreated HTLA cells)” value is recorded as ~3 fold. Also, at dopamine receptor DAR3, the “increase in RLU compared to the control” value was 6.5 fold.
